According to article PMC3338766 (2012):

Key:
[1] = tested on: d(T2G8) (DNA, G4) GGGGTTGGGG; experiment: ESI-MS, relative binding affinity; conditions: 50 mM ammonium acetate; residual K+; 10 nM quadruplex and ligand, 10% methanol; intensity-derived index, not a constant
[2] = tested on: d(T2G8) (DNA, G4) GGGGTTGGGG; experiment: ITC; conditions: K+ (100 mM KCl, 30 mM potassium phosphate); pH 7.0, 25 °C; two-sites model; site 1 of 2
[3] = tested on: d(T2G8) (DNA, G4) GGGGTTGGGG; experiment: SYBR Green fluorescence melting; conditions: K+ (100 mM KCl, 30 mM potassium phosphate), 5 µM quadruplex, 1× SYBR Green, ligand concentration not stated
[4] = tested on: d(T2G8) (DNA, G4) GGGGTTGGGG; experiment: UV-Vis titration (soret shift 424–434 nm, 38.2% hypochromicity); conditions: K+ (100 mM KCl, 30 mM potassium phosphate); 5 µM TMPyP4, 25 °C

IRa [1]	K1 [2]	Tm ([3]; Tm 43 to 36 °C, derived from two Tm)	Tm ([3]; Tm 43 to 49 °C)	binding [4]	SMILES
0.45	0.0597 (±0.01) × 10^8	-7 °C	–	–	COc1cc2c(cc1OCCCC(=O)Nc1ccc3ccc4cccc5ccc1c3c45)N=C[C@@H]1CCCN1C2=O
0.67	0.0875 (±0.03) × 10^8	–	~ 6 °C	–	COc1cc2c(cc1OCCCCCOc1cc3c(cc1OC)C(=O)N1CCC[C@H]1C(=O)N3)N=C[C@@H]1CCCN1C2=O
0.18	–	–	–	yes	C[n+]1ccc(-c2c3nc(c(-c4cc[n+](C)cc4)c4ccc([nH]4)c(-c4cc[n+](C)cc4)c4nc(c(-c5cc[n+](C)cc5)c5ccc2[nH]5)C=C4)C=C3)cc1
